How the values were obtained:
wild-type HIV-1 protease = wild-type HIV-1 protease (Human immunodeficiency virus type 1 group M subtype B (isolate HXB2) (HIV-1), UniProt P04585); test: Assay for inhibition of microbial expressed HIV protease; assay type: biochemical; details: wild-type HIV-1 protease enzyme
Method: The inhibition of WT HIV-1 protease was studied using the reaction of the protease (expressed in Escherichia coli) with a peptide substrate as described in WO 2009/042094. The test compound was first preincubated with the enzyme in assay buffer (50 mM sodium acetate, pH 5.5, 100 mM NaCl, and 0.1% BSA) for 30 minutes at room temperature. Substrate was then added to 400 micromolar in a total volume of 80 microliters containing 10 picomolar HIV-1 protease and the reaction was incubated for 1 hour at 30° C. The reaction was quenched with the addition of 120 microliters of 10% phosphoric acid. The product formation was determined after separation of product and substrate on a ZORBAX® Eclipse XDB-C18 (Agilent Technologies, Palo Alto, Calif.) column connected to an Agilent 1100 high performance liquid chromatography system with fluorescence detection (excitation 270 nanometer and emission 330 nanometer). Alternatively, the inhibitor was preincubated with enzyme and substrate as described above, but in a total volume of 20 microliters containing 20 picomolar HIV-1 protease and the reaction was incubated for 1 hour at 30° C. The reaction was quenched with the addition of 30 microliters of 1 micromolar indinavir (indinavir was also used as an internal standard), and the product formation was determined after separation of product and substrate on a ZORBAX® Eclipse XDB-C18 column connected to an API 4000 mass spectrometer (Applied Biosystems, Carlsbad, Calif.) with multiple reaction monitoring (transitions were 644.5/428.9 and 615.4/422.2 (M1/M3) for product and indinavir respectively). The extent of inhibition of the reaction was determined from the peak area of the products. HPLC of the products, independently synthesized, provided quantitation standards and confirmation of the product composition.

[1] = system: HIV-1 replication in T-lymphoid cells; test: Assay for inhibition of HIV replication (spread assay); assay type: cell-based; details: 10% FBS
Method: Assays for the inhibition of acute HIV infection of T-lymphoid cells were conducted in accordance with Vacca, J. P. et al., Proc. Natl. Acad. Sci. USA 91: 4096-4100 (1994).

[2] = Human immunodeficiency virus 1, T-lymphoid

COC(=O)N[C@H](C(=O)NCCC(F)C[C@@H](CO)N(C(C)C)S(=O)(=O)c1ccc(N)cc1)C(c1ccccc1)c1ccccc1 (stereo partly drawn) [Example 10, N-[(5S)-5-{[(4-aminophenyl)sulfonyl](propan-2-yl)amino}-3-fluoro-6-hydroxyhexyl]-Nα-(methoxycarbonyl)-β-phenyl-L-phenylalaninamide]
IC50 (wild-type HIV-1 protease): 3.9 nM | IC95 [1, 2]: 246 nM

COC(=O)N[C@H](C(=O)NCC(F)(F)CC[C@@H](CO)N(C1CCC(F)(F)CC1)S(=O)(=O)c1ccc2ncsc2c1)C(c1ccccc1)c1ccccc1 [Example 6, N-{(5S)-5-[(1,3-benzothiazol-6-ylsulfonyl)(4,4-difluorocyclohexyl)amino]-2,2-difluoro-6-hydroxyhexyl)-Nα-(methoxycarbonyl)-β-phenyl-L-phenylalaninamide]
IC50 (wild-type HIV-1 protease): 2.73 nM | IC95 [1, 2]: 356 nM

COC(=O)N[C@H](C(=O)NCC(F)(F)CC[C@@H](CO)N(Cc1cn[nH]c1)S(=O)(=O)c1ccc2ncsc2c1)C(c1ccccc1)c1ccccc1 [Example 5, N-{(5S)-5-[(1,3-benzothiazol-6-ylsulfonyl)(1H-pyrazol-4-ylmethyl)amino]-2,2-difluoro-6-hydroxyhexyl}-Nα-(methoxycarbonyl)-β-phenyl-L-phenylalaninamide]
IC50 (wild-type HIV-1 protease): 0.39 nM | IC95 [1, 2]: 907 nM

COC(=O)N[C@H](C(=O)NCC(F)CC[C@@H](CO)N(CCC(C)C)S(=O)(=O)c1ccc(N)cc1)C(c1ccccc1)c1ccccc1 (single isomer, unassigned) [Example 1-1, N-[(2R or S,5S)-5-{[(4-aminophenyl)sulfonyl](3-methylbutyl)amino}-2-fluoro-6-hydroxyhexyl]-Nα-(methoxycarbonyl)-β-phenyl-L-phenylalaninamide]
IC50 (wild-type HIV-1 protease): 0.24 nM | IC95 [1]: 42.8 nM

COC(=O)N[C@H](C(=O)NCC(F)(F)CC[C@@H](C(N)=O)N(CC1CC(F)(F)C1)S(=O)(=O)c1ccc2ncsc2c1)C(c1ccccc1)c1ccccc1 [Example 7, N^6-[N-(methoxycarbonyl)-β-phenyl-L-phenylalanyl]-N^2-(1,3-benzothiazol-6-ylsulfonyl)-N^2-[(3,3-difluorocyclobutyl)methyl]-5,5-difluoro-L-lysinamide]
IC50 (wild-type HIV-1 protease): 0.43 nM | IC95 [1, 2]: 200 nM

COC(=O)N[C@H](C(=O)NCC(F)CC[C@@H](CO)N(CCC(C)C)S(=O)(=O)c1ccc(N)cc1)C(c1ccccc1)c1ccccc1 (stereo partly drawn) [Example 1, N-[(5S)-5-{[(4-aminophenyl)sulfonyl](3-methylbutyl)amino}-2-fluoro-6-hydroxyhexyl]-Nα-(methoxycarbonyl)-β-phenyl-L-phenylalaninamide]
IC50 (wild-type HIV-1 protease): 0.03 nM | IC95 [1, 2]: 10.7 nM

COC(=O)N[C@H](C(=O)NCCC(F)(F)C[C@@H](CO)N(CC1CC(F)(F)C1)S(=O)(=O)c1ccc2ncsc2c1)C(c1ccccc1)c1ccccc1 [Example 9, N-[(5S)-5-{(1,3-benzothiazol-6-ylsulfonyl)[(3,3-difluorocyclobutyl)methyl]amino}-3,3-difluoro-6-hydroxyhexyl]-Nα-(methoxycarbonyl)-β-phenyl-L-phenylalaninamide]
IC50 (wild-type HIV-1 protease): 5.62 nM | IC95 [1, 2]: 105 nM

COC(=O)N[C@H](C(=O)NCC(F)CC[C@@H](CO)N(CCC(C)C)S(=O)(=O)c1ccc(N)cc1)C(c1ccccc1)c1ccccc1 (single isomer, unassigned) [Example 1-2, N-[(2R or S,5S)-5-{[(4-aminophenyl)sulfonyl](3-methylbutyl)amino}-2-fluoro-6-hydroxyhexyl]-Nα-(methoxycarbonyl)-β-phenyl-L-phenylalaninamide]
IC50 (wild-type HIV-1 protease): 0.01 nM | IC95 [1]: 19.5 nM

COC(=O)N[C@H](C(=O)NCC(F)(F)CC[C@@H](CO)N(CC1CC(F)(F)C1)S(=O)(=O)c1ccc2ncsc2c1)C(c1ccccc1)c1ccccc1 [Example 4, N-[(5S)-5-{(1,3-benzothiazol-6-ylsulfonyl)[(3,3-difluorocyclobutyl)methyl]amino}-2,2-difluoro-6-hydroxyhexyl]-Nα-(methoxycarbonyl)-β-phenyl-L-phenylalaninamide]
IC50 (wild-type HIV-1 protease): 0.59 nM | IC95 [1, 2]: 181 nM

CCCCCN([C@H](CO)CCC(F)(F)CNC(=O)[C@@H](NC(=O)OC)C(c1ccccc1)c1ccccc1)S(=O)(=O)c1ccc(CO)cc1 [Example 2]
IC50 (wild-type HIV-1 protease): 0.019 nM | IC95 [1, 2]: 16.3 nM

COC(=O)N[C@H](C(=O)NCCC(F)(F)C[C@@H](CO)N(C(C)C)S(=O)(=O)c1ccc(N)cc1)C(c1ccccc1)c1ccccc1 [Example 8, N-[(5S)-5-{[(4-aminophenyl)sulfonyl](propan-2-yl)amino}-3,3-difluoro-6-hydroxyhexyl]-Nα-(methoxycarbonyl)-β-phenyl-L-phenylalaninamide]
IC50 (wild-type HIV-1 protease): 6.07 nM | IC95 [1, 2]: 299 nM

From US9079834B2, “HIV protease inhibitors” (Merck Canada Inc., priority 2010, dated 2015)
